Where “and” joins values, the source holds several entries; their conditions need not be identical. Equal entries are not always repeated. Where two headings read alike, the source gives them in different places. Each block holds one compound with its values, some of them ahead of it.
Legend:
[1] = tested on: ADP induced platelet aggregation; assay: In vitro anti-platelet aggregation, ADP induced (turbidimetry, PRP); format: cell-based, rabbits
Experimental: (§1) The animals were used for experiments after 1 week.
(§2) The common carotid artery was separated, and a polyethylene tube was inserted into the common carotid artery to collect blood. […] The upper beige suspension was pipetted to obtain the platelet-rich plasma (PRP). […] The PRP was adjusted with the PPP to make the platelet count at 1×10^8/mL.
(§3) 260 μL of platelet-rich plasma (PRP) was added into a turbidimetric tube. Then 10 μL of test compounds with different concentrations, positive control drugs or normal saline were separately added, and the plasma was incubated at 37° C. for 5 min. Then 30 μL of inducers were added in sequence. The final concentration of an inducer ADP is 10 μM, and the final concentration of an inducer AA is 1 mM. […] Inhibition rate of platelet aggregation (IRPA)=(platelet aggregation rate of the control group−platelet aggregation rate of the experimental group)/platelet aggregation rate of the control group×100%.

[2] = Concentration of metabolites in rat brain tissue after intravenous injection of I1s; format: in vivo; settings: for Passage through the blood-brain barrier: detected in rat brain tissue after iv I1s; for concentration at 6 h: male, Sprague-Dawley, rat, brain, iv, 25 mg/kg, read-out: Concentration in brain tissue (single rats)
Experimental: (§4) 12 clean SD male rats, provided by Qinglongshan Animal Breeding Farm in Jiangning District, Nanjing. The production license number is SCXK (Jiangsu) 2017-0001. The body weight of the rats ranges from 180 to 220 g. The rats were used after being raised in the laboratory of an experimental animal center for 2 days after purchase, fasted for 12 hours before administration and 6 hours after administration, and were allowed to freely drink during the test period.
(§5) The concentration of the original drugs and metabolites in the rat blood were determined by LC-MS/MS, and WinNonlin pharmacokinetics professional software and a statistical moment method were used for calculation to obtain the corresponding pharmacokinetic parameters.

[3] = tested on: AA induced platelet aggregation; assay: In vitro anti-platelet aggregation, AA induced (turbidimetry, PRP); format: cell-based, rabbits
Experimental: as §1, §2, §3

[4] = Pharmacokinetics of metabolites in rat plasma after intravenous injection of I1s; format: in vivo, SD male rats; settings: metabolite in rat plasma after I1s 25 mg/kg tail vein, rats 1-3
Experimental: as §4, §5

[5] = tested on: arteriovenous bypass thrombosis in rats; assay: Effect on arteriovenous bypass thrombosis in rats; format: in vivo, SD rats; settings: 10 mg/kg/day tail vein 7 days; for inhibition at 10 mg/kg/day: Rattus norvegicus, 168 h, vs model group
Experimental: Male SD rats, weighing 250-280 g, purchased from Beijing Vital River Laboratory Animal Technology Co., Ltd., raised in an SPF breeding environment with indoor temperature controlled at 23±2° C., and allowed to freely eat and drink. The total number of the animals is 64.
Model group: injected with the same volume of normal saline (containing 1% DMSO) through the tail vein, and administered continuously for 7 days. The test was started 2 h after the last dose (n=8).
The dose of all drugs was 10 mg/kg/day. The drugs were formulated into normal saline solutions containing 1% DMSO, and injected through the tail vein for 7 consecutive days. The test was started 2 hours after the last dose (n=8).
The rats were intraperitoneally injected with a 3% pentobarbital sodium solution (30 mg/kg). After anesthesia, the rats were immobilized in the supine position, and a median cervical incision was made to separate the right common carotid artery and left external jugular vein. A 6 cm long suture was put in the middle of a polyethylene tube (the suture needs to be weighed before being put in the tube), and the polyethylene tube was filled with heparin saline (50 U/mL). The polyethylene tube was inserted into the separated blood vessels to make the artery and vein form a loop. After 15 min of circulation of the blood flow, the suture was taken out, and the suture with thrombus was collected and weighed immediately. Then, after the suture was dried at room temperature for 24 h, the dry weight was determined. The total weight minus the weight of the suture was the wet weight of the thrombus, and the dry weight minus the weight of the suture was the dry weight of the thrombus.

[6] = tested on: bleeding time in mice after tail cutting; assay: Effect on bleeding time in mice after tail cutting; format: in vivo, Kunming mice; settings: 5 mg/kg orally once a day for 14 days, 1 h after last dose
Experimental: SPF Kunming mice, weighing 18-22 g, purchased from Beijing Vital River Laboratory Animal Technology Co., Ltd., having a certificate number of SCXK (Beijing) 2010-0002, raised in an SPF animal room with indoor temperature controlled at 23±2° C., and allowed to freely eat and drink. The day and night time was 12 h/12 h.
The administration dose level of the positive drug groups and the test drug groups was 5 mg/kg, and the same amount of normal saline was given to the negative control group. All mice were administered for 14 consecutive days orally once a day. One hour after the last dose, the mice were anesthetized with 1-2% isoflurane, and the tails were cut for 5 mm. The tips of the tails were absorbed dry with filter paper every 30 seconds until the bleeding stopped naturally. Bleeding time is defined as the interval between the start and stop of bleeding.

MCAO rats = assay: Cerebral infarction, cerebral edema and nerve function of rats with focal cerebral ischemia (MCAO); format: in vivo, SD rats; settings: MCAO rats, 10 mg/kg/day iv 3 days (combinations equimolar), first dose 2 h after reperfusion; for inhibition at 10 mg/kg/day: Rattus norvegicus
Experimental: The total number of the animals was 88.
Sham operation group: equal volume of normal saline (containing 1% DMSO) (iv. 3 days), TTC, cerebral edema and neurological function score (n=8); […]
The middle cerebral arteries of the rats were blocked by a suture-occluded method, and reperfused after 2 h. […] All drugs were formulated into normal saline solutions containing 1% DMSO for administration, and the duration of administration was controlled at approximately 1 min. […] 2 h after the last administration, the neurological defect scores were firstly obtained, and then the rats of each group were sacrificed. The whole brains were taken out and weighed (wet weight), TTC stained, and dried to determine the effects of the compounds on cerebral infarction and cerebral edema.
2 h after the last administration, the neurological defects of the animals were graded and scored by the Longa's method.
After the neurobehavioral examination was completed, four coronal incisions were made on the whole brains of the rats on the optic chiasma and 2 mm anteroposterior positions of the optic chiasma. After the whole brains were cut into five slices, the brain slices were quickly placed in 5 ml of phosphate buffer solution containing 2% TTC, and incubated at 37° C. in the dark. In the incubation process, the brain slices were turned once every 5 min. After 10 min of incubation, the brain slices were taken out and pictures were taken with a digital camera (Olympus C-4000, Japan).
The calculation formula of brain water content is as follows: Water content of brain tissue (%)=(wet weight of brain tissue−dry weight of brain tissue)/wet weight of brain tissue×100%; Cerebral edema rate (%)=water content of brain tissue of each group (%)−water content of brain tissue of sham operation group (%)/water content of brain tissue of sham operation group (%)×100%; Inhibition rate of cerebral edema (%)=(rate of cerebral edema of model group (%)−rate of cerebral edema of administration group (%))/rate of cerebral edema of model group (%)×100%.

[7] = Concentration of metabolites in rat brain tissue after intravenous injection of I1s; format: in vivo; settings: male, Sprague-Dawley, rat, brain, iv, 25 mg/kg; for concentration at 0.5 h: 0.5 h after intravenous injection of I1s; for concentration at 1 h: 1 h after intravenous injection of I1s
[8] = Oryctolagus cuniculus, Platelet, read-out: IC50 ADP (10 μM), rabbit PRP, inducer ADP 10 μM, 37° C.
[9] = 6 h after intravenous injection of I1s
[10] = read-out: IC50 AA (1 mM), rabbit PRP, inducer AA 1 mM, 37° C.
[11] = male, Sprague-Dawley, rat, plasma, iv, 25 mg/kg
[12] = male, Sprague-Dawley, rat, plasma, iv, 25 mg/kg, read-out: AUC(0-t)
[13] = male, Sprague-Dawley, rat, plasma, iv, 25 mg/kg, read-out: Cmax
[14] = read-out: Inhibition rate (dry weight of thrombus)
[15] = read-out: Inhibition rate (wet weight of thrombus)
[16] = read-out: Concentration in brain tissue (single rats)
[17] = read-out: Concentration in brain tissue, Mean

Compound: CCCC[C@H](OC(C)=O)c1ccccc1C(=O)O [(S)-APB, (S)-2-(1-acetoxy-n-pentyl)benzoic acid]
IC50 [1, 8]: 790 ± 80 µM | Passage through the blood-brain barrier [2]: could all pass through the blood-brain barrier | concentration at 6 h [2, 9]: 26.1 ng/g | IC50 [3, 10]: 430 ± 50 µM | half-life ([4]; male, Sprague-Dawley, rat, plasma, intravenous, 25 mg/kg): ~3 h | AUC(0-inf) [4, 11]: 31800 ng·h/mL | clearance [4, 11]: 13.1 mL/min/kg | half-life [4, 11]: 2.71 h | AUC(0-t) [4, 12]: 31700 ng·h/mL | Cmax [4, 13]: 51400 ng/mL | AUC(0-t) ([4]; listed as M2): 28614.9 ng·h/mL and 28503.7 ng·h/mL | AUC(0-∞) ([4]; listed as M2): 28748.5 ng·h/mL and 28703.5 ng·h/mL | Cl ([4]; listed as M2): 14.494 mL/min/kg and 14.516 mL/min/kg | Cmax ([4]; listed as M2): 53513.2 ng/mL and 52069.2 ng/mL | Vz ([4]; listed as M2): 4.1842 L/kg and 4.8584 L/kg

Compound: CC(=O)Oc1ccccc1C(=O)O [Aspirin]
IC50 [1, 8]: 780 ± 50 µM | Dry weight of thrombus ([5]; 2 h after last dose): 6.06 ± 0.46 | Wet weight of thrombus ([5]; 2 h after last dose): 21.46 ± 1.76 | inhibition at 10 mg/kg/day [5, 14]: 39.7% | inhibition at 10 mg/kg/day [5, 15]: 40.7% | Bleeding time [6]: 22.52 ± 1.31 min | IC50 ([3]; Oryctolagus cuniculus, Platelet, read-out: IC50 AA (1 mM), rabbit PRP, inducer AA 1 mM, 37° C.): 160 ± 10 µM

Compound: COC(=O)[C@H](c1ccccc1Cl)N1CCc2sccc2C1 [Clopidogrel]
Bleeding time [6]: 25.28 ± 0.48 min

Compound: CCCC[C@@H](OC(C)=O)c1ccccc1C(=O)O [I1r, L-Arginine (R)-2-(1-Acetoxy-n-Pentyl) Benzoate]
IC50 ([1]; read-out: IC50 ADP (10 μM), rabbit PRP, inducer ADP 10 μM, 37° C.): 730 ± 70 µM | Dry weight of thrombus ([5]; 2 h after last dose): 8.51 ± 0.18 | inhibition at 10 mg/kg/day [5, 14]: 15.2% | inhibition at 10 mg/kg/day [5, 15]: 18.4% | Cerebral edema (MCAO rats): 10.72 ± 4.19% | Infarct volume (MCAO rats): 20.14 ± 2.95% | inhibition at 10 mg/kg/day (MCAO rats; read-out: Inhibition rate of cerebral edema): 33.2% | inhibition at 10 mg/kg/day (MCAO rats; read-out: Inhibition rate of infarct volume): 51.9% | IC50 [3, 10]: 180 ± 30 µM

Concentration in brain tissue (single rats) ([2]; 0.5 h after intravenous injection of I1s): 118.09 ng/g and 137.01 ng/g | Concentration in brain tissue (single rats) ([2]; 1 h after intravenous injection of I1s): 39.47 ng/g and 32.78 ng/g | Concentration in brain tissue (single rats) [2, 9]: 31.33 ng/g and 32.14 ng/g | concentration at 6 h [2, 9]: 31.1 ng/g | concentration at 0.5 h [7, 16]: 76.8 ng/g | concentration at 0.5 h [7, 17]: 111 ng/g | concentration at 1 h [7, 16]: 35.5 ng/g | concentration at 1 h [7, 17]: 35.9 ng/g | concentration at 6 h [7, 9]: 31.5 ng/g | AUC(0-inf) [4, 11]: 624 ng·h/mL | clearance [4, 11]: 668 mL/min/kg | AUC(0-t) [4, 12]: 518 ng·h/mL | Cmax [4, 13]: 737 ng/mL | AUC(0-t) [4]: 577.8 ng·h/mL and 492.6 ng·h/mL | AUC(0-∞) [4]: 673.9 ng·h/mL and 858.7 ng·h/mL | Cl [4]: 618.2922 mL/min/kg and 485.2238 mL/min/kg | Cmax [4]: 876.5 ng/mL and 569.2 ng/mL
Compound: CCCC[C@H](O)c1ccccc1C(=O)O [M3, (S)-2-(1-hydroxy-n-pentyl)benzoic acid]
Passage through the blood-brain barrier [2]: could all pass through the blood-brain barrier
